IC50 and fold change data for 67 compounds are collected here from PubChem BioAssay AID1419 (Emory University Molecular Libraries Screening Center, 2008).

The source made the active and inactive calls. How the calls were made is not given here.

The experiment is described as follows: EBV protein-peptide binding inhibitors, dose response, biochemical, fluorescence polarization (AID 1419). As to conditions: cell-free protein-peptide binding, 2 h; for fold change: measured here: P channel fold over control, at 54 µM. (Polarisation of emitted light reports the rotation of a fluorescent probe.)

Regarding `O=C(NC1CC1)c1cc(-c2ccco2)nc2ccccc12`, the IC50 is 3.96 µM and the fold change worked out at 1.06.
Taken in the same sequence, the figures for `CC(=O)Nc1ccc2cc3ccc(NC(C)=O)cc3nc2c1` were 0.56 µM and 12.5.
Take `COc1ccc(C2C=C(c3ccc(Cl)cc3)Nc3nc(NC(C)=O)nn32)cc1` (centres undefined): the IC50 was 5.59 µM and the fold change was determined as 3.32.
For the compound `O=c1[nH]n2c(=O)c3c([nH]c2c1N=Nc1cccc(Cl)c1)CCC3`, the IC50 was > 54 µM (inactive) and the fold change worked out at 0.94.
Turning to `N#C/C(=C(/O)c1ccc(-c2cccc([N+](=O)[O-])c2)o1)c1nc2ccccc2s1`, the IC50 was 7.24 µM and the fold change amounted to 1.09.
As for `COc1ccc(-n2c(N)c(C#N)c3ccc([N+](=O)[O-])cc3c2=O)cc1`, the IC50 was > 54 µM (inactive) and the fold change is 1.45.
For the compound `COc1ccc(C2C=C(c3ccc(Br)s3)Nc3ncnn32)cc1OC` (centres undefined), the IC50 was less than 0.42 µM and the fold change turned out to be 24.3.
As for `COC(=O)c1cc(NC(=O)c2ccccc2)c(=O)oc1/C=C/Nc1ccc(Oc2ccccc2)cc1`, the IC50 is 1.4 µM and the fold change worked out at 22.
Turning to `O=C1/C(=C/c2ccco2)SC(=S)N1c1cccnc1`, the IC50 was > 54 µM (inactive) and the fold change stood at 1.09.
Consider `O=C(N=Nc1c(O)[nH]c2ccccc12)c1cc(-c2cccs2)[nH]n1`, for which the IC50 was 19.6 µM and the fold change is 0.72.
With `CC(=O)Oc1ccc2c(c1)Oc1cc(OC(C)=O)ccc1C21OC(=O)c2ccccc21`, the IC50 is less than 0.42 µM and the fold change amounted to 23.1.
Consider `O=c1cc(-c2ccccc2)nc2c(-c3ccccc3)c(C(F)(F)F)[nH]n12`, for which the IC50 was > 54 µM (inactive) and the fold change was 1.02.
For `CCn1c(CSc2n[nH]c(N)n2)nc2cc(C(=O)O)ccc21`, the IC50 was 4.18 µM and the fold change came out at 5.1.
On to `CC(C)c1nnc(N2C(=O)C(O)=C(C(=O)c3cccs3)C2c2ccccc2)s1` (centres undefined), for which the IC50 was less than 0.42 µM and the fold change was found to be 4.97.
As to `Cc1cccn2c(=O)c(/C=C3\SC(=S)N(CC(C)C)C3=O)c(NCCCOC(C)C)nc12`, the IC50 was > 54 µM (inactive) and the fold change amounted to 1.37.
On to `COc1ccc(/C=C2\N=C(c3c(-c4ccccc4)noc3C)OC2=O)cc1OC`, for which the IC50 is 15.9 µM and the fold change was found to be 3.56.
For the compound `Cn1c(-c2ccc(C=O)s2)nc2c3ccccc3c3ccccc3c21`, the IC50 is 4.07 µM and the fold change was determined as 14.6.
Take `CCOc1cc(C=C2C(=O)c3ccccc3C2=O)ccc1OCC(=O)Nc1ccc(C)cc1`: the IC50 was 2.18 µM and the fold change worked out at 11.6.
For the compound `COc1ccc(Cl)cc1CN1CCN(c2nc(C)cc(C)c2C#N)CC1`, the IC50 is 18.9 µM and the fold change amounted to 2.25.
`C=C1c2cc(OC)ccc2NC(=O)N1CC`: the IC50 is 8.9 µM and the fold change worked out at 1.91.
`O=C(Nc1ccccc1F)C(=Cc1sc(N2CCOCC2)nc1-c1ccccc1)C(=O)Nc1ccccc1F`: the IC50 was 5.71 µM and the fold change came to 7.63.
On the same counts, the results for `CCOC(=O)c1oc2cc(OCC(=O)OC)ccc2c(=O)c1-c1ccc(OC)c(OC)c1` are > 54 µM (inactive) and 0.99.
On to `Nc1c(O)ccc2c1C(=O)c1ccccc1C2=O`, for which the IC50 was 4.09 µM and the fold change stood at 2.59.
Regarding `CCCCCn1c(N)c(-c2nc3ccccc3o2)c2c([N+](=O)[O-])nn(C)c(=O)c21`, the IC50 is 48.1 µM (inactive) and the fold change is 0.443.
In the case of `CCOC(=O)/C(C#N)=C\c1ccc(N2CCN(C/C=C/c3ccccc3)CC2)cc1`, the IC50 was 18.7 µM and the fold change worked out at 16.
Take `COc1ccc(-c2cc(C(F)(F)F)c3c(n2)sc2c(O)cc(=O)[nH]c23)c(OC)c1`: the IC50 is 3.77 µM and the fold change was found to be 3.12.
As to `CCOC(=O)c1cc2n(c1/N=C/N(C)C)-c1ccccc1C2=O`, the IC50 is less than 0.42 µM and the fold change turned out to be 42.3.
With `CCOc1ccc(N/C=C/C(=O)c2ccc(OC)cc2)c([N+](=O)[O-])c1`, the IC50 is 4.13 µM and the fold change was found to be 2.81.
In the case of `COC(=O)c1cc(C(=O)c2ccc(Cl)cc2)n2c(=O)/c(=C\N(C)C)sc12`, the IC50 was 51.9 µM (inactive) and the fold change came to 1.56.
In the case of `CCOc1ccc(-c2nn(-c3ccccc3)cc2/C=C2\SC(=S)N(C3CCS(=O)(=O)C3)C2=O)cc1` (centres undefined), the IC50 was 2.12 µM and the fold change stood at 10.9.
For the compound `CCSc1cc(N2CCCC2)nc(-c2ccccc2Cl)n1`, the IC50 was 45.7 µM (inactive) and the fold change came to 1.05.
On to `Cc1cc(Br)c2nc3c(c(C(=O)O)c2c1)CCCCC3`, for which the IC50 was > 54 µM (inactive) and the fold change is 1.06.
As for `Cc1ccc(-c2cc(-c3ccco3)c(C#N)c(=O)[nH]2)cc1`, the IC50 was > 54 µM (inactive) and the fold change was 1.46.
Regarding `COc1ccc(Nc2nc(=O)c3cc([N+](=O)[O-])ccc3s2)cc1`, the IC50 was > 54 µM (inactive) and the fold change is 0.377.
Taken in the same sequence, the figures for `O=C(Nc1cccc(Cl)c1)c1cc(N=Nc2ccc([N+](=O)[O-])cc2Cl)ccc1O` were 17.7 µM and 0.99.
Take `CCN(CC)c1ccc(/C=C/C(=O)c2ccc(Br)cc2)cc1`: the IC50 was 2.64 µM and the fold change was 31.1.
Turning to `O=C(Nc1ccc(Cl)cc1)Nc1nnc(-c2ccncc2)s1`, the IC50 was > 54 µM (inactive) and the fold change is 1.08.
With `O=C(Nc1ccc(Cl)c(Cl)c1)Nc1nnc(-c2ccncc2)s1`, the IC50 was 2.54 µM and the fold change amounted to 1.23.
For `COc1cc(N2CCCC2)c(OC)cc1/C=C(/C#N)c1ccc(F)cc1`, the IC50 is 9.59 µM and the fold change worked out at 10.8.
On the same counts, the results for `CCOc1ccc2nc(N3C(=O)/C(=C/c4ccc(Cl)cc4)NC3=S)sc2c1` are > 54 µM (inactive) and 1.35.
On the same counts, the results for `Cc1cc(-c2ccccc2)c(C#N)c(=S)[nH]1` are > 54 µM (inactive) and 1.04.
For the compound `CC(=O)Nc1nc(C)c(-c2csc(Nc3cccc([N+](=O)[O-])c3)n2)s1`, the IC50 was > 54 µM (inactive) and the fold change came to 0.71.
Take `CCN1C(=O)/C(=C/C2=Cc3ccccc3OC2C)SC1=S` (centres undefined): the IC50 is 17.2 µM and the fold change amounted to 5.33.
On the same counts, the results for `COc1ccccc1NC(=O)C(=O)N/N=C/c1ccc([N+](=O)[O-])s1` are > 54 µM (inactive) and 1.09.
As for `O=C(C1=C(O)C(=O)N(c2ncccn2)C1c1cccs1)c1ccco1` (centres undefined), the IC50 was 5.21 µM and the fold change was 1.87.
As for `CN(C)CCCN1C(=O)c2cccc3c([N+](=O)[O-])ccc(c23)C1=O`, the IC50 is 18 µM and the fold change was determined as 2.14.
On the same counts, the results for `COC(=O)c1ccc2c(c1)SC1=C(CCCC1=O)N2` are 1.44 µM and 3.08.
In the case of `Cc1ccc(CNC(=O)c2ccc(-n3cccc3)cc2)cc1`, the IC50 was > 54 µM (inactive) and the fold change is 1.15.
As for `O=C(C1=NN(c2ccccc2)C2C(=O)N(c3ccccc3Cl)C(=O)C12)c1ccccc1` (centres undefined), the IC50 was 6.16 µM and the fold change turned out to be 8.43.
`CCN(CC)c1ccc2cc(C(=O)NNC(=O)c3ccc(S(=O)(=O)N4CCCCC4)cc3)c(=O)oc2c1`: the IC50 was 3.01 µM and the fold change is 87.1.
Take `COc1ccc(OC)c(C2C3CN(C(C)C)CC=C3C(C#N)=C(N)C2(C#N)C#N)c1` (centres undefined): the IC50 was 5.91 µM and the fold change was found to be 3.96.
Turning to `CCSc1nnc(NC(=O)C(C(F)(F)F)C(F)(F)F)s1`, the IC50 is > 54 µM (inactive) and the fold change was found to be 0.583.
In the case of `Cc1ccc(N2C(=O)c3cccc4c(N5CCN(C)CC5)ccc(c34)C2=O)c2cccnc12`, the IC50 is less than 0.42 µM and the fold change was found to be 31.9.
On to `COc1ccc(S(=O)(=O)NCCc2ccc(F)cc2)cc1`, for which the IC50 was > 54 µM (inactive) and the fold change was 0.98.
Consider `N#CC1=C(N)Oc2ccc3ccc(O)cc3c2C1c1ccsc1` (centres undefined), for which the IC50 was 1.97 µM and the fold change worked out at 2.08.
For the compound `Cc1ccc(C2C(C(=O)c3ccco3)=C(O)C(=O)N2c2nnc(C)s2)cc1` (centres undefined), the IC50 is > 54 µM (inactive) and the fold change was determined as 1.75.
For `CC(C)N(C(=O)C[n+]1ccc(/C=N/O)cc1)C(C)C`, the IC50 was > 54 µM (inactive) and the fold change was 1.05.
On to `CN(C)CCCN1C(=O)c2cccc3c(Br)ccc(c23)C1=O`, for which the IC50 is 7.44 µM and the fold change was determined as 3.2.
Turning to `CC1=Nc2ccccc2/C1=C\c1nc(-c2ccc(F)cc2)oc1O`, the IC50 was 1.7 µM and the fold change was found to be 19.
On to `CCOc1ccc(-c2c(C#N)c(N)nc3sc(C(=O)c4ccccc4)c(N)c23)cc1`, for which the IC50 is > 54 µM (inactive) and the fold change stood at 4.62.
`Cn1c(=O)c(Nc2ccc(Cl)cc2)c2c3c(cccc31)C(=O)c1ccccc1-2`: the IC50 is less than 0.42 µM and the fold change came out at 25.4.
With `Brc1ccc(C2=CC(c3ccco3)n3ncnc3N2)cc1` (centres undefined), the half-inhibitory concentration (IC50) was 1.09 µM and the fold change worked out at 6.05.
For `CCOC(=O)c1c(Nc2ccccc2N)cc(C)nc1C`, the IC50 is > 54 µM (inactive) and the fold change is 0.997.
Consider `CCCSCCCNC(=O)CC1Oc2ccccc2NC1=O` (centres undefined), for which the IC50 was > 54 µM (inactive) and the fold change stood at 1.09.
On the same counts, the results for `CN(C)c1ccc2c3c(cccc13)C(=O)N(c1ccccc1)C2=O` are 4.05 µM and 11.
As to `NC(=O)c1c(NC(=O)CSc2nnc(-c3ccco3)n2-c2ccccc2)sc2c1CCC2`, the IC50 is 46 µM (inactive) and the fold change was 0.977.
As for `CCOc1cc(/C=N/NC(=O)c2ccc(-c3csc(Nc4ccc(C)cc4)n3)cc2)ccc1OCC(=O)O`, the IC50 is 14.8 µM and the fold change worked out at 1.08.

As a reminder, the IC50 is the concentration that gives 50% inhibition.
